Experimental data taken from ChEMBL document CHEMBL1201862, “PubChem BioAssay data set” (2004).
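How tested: cells in 96-well plates exposed to compound for 48 hours at five concentrations. Here, GI50 denotes the concentration required for 50% inhibition of growth.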 The source made the active and inactive calls. No stated cut-off is given here; in the data, active = GI50 up to about 1.1 µM and inactive = higher.

Columns and labels:
Experiment in all cases: NCI-60 cell line screen, 48 h
ACHN = test system: ACHN
COLO 205 = test system: COLO 205
EKVX = test system: EKVX
HL-60 = test system: HL-60
K562 = test system: K562
NCI-H23 = test system: NCI-H23
NCI-H460 = test system: NCI-H460
OVCAR-3 = test system: OVCAR-3
OVCAR-5 = test system: OVCAR-5
OVCAR-8 = test system: OVCAR-8
SF-268 = test system: SF-268
SN12C = test system: SN12C
SNB-75 = test system: SNB-75
SW-620 = test system: SW-620
UACC-257 = test system: UACC-257
CAKI-1 = test system: CAKI-1
SR = test system: SR

Measured: GI50

O=C1CCC(=O)N1CNc1cccc(NCN2C(=O)CCC2=O)c1
inactive: ACHN 71.4 µM | COLO 205 > 100 µM | EKVX > 100 µM | HL-60 20.1 µM | K562 45.6 µM | NCI-H23 > 100 µM | NCI-H460 > 100 µM | OVCAR-3 > 100 µM | OVCAR-5 > 100 µM | OVCAR-8 > 100 µM | SF-268 70 µM | SN12C > 100 µM | SNB-75 12.9 µM | SW-620 > 100 µM | UACC-257 71.6 µM

COc1ccc2c(c1)[n+]([O-])c(C(=O)C/C(=N/NC(=O)C[N+](C)(C)C)C(=O)Nc1cccc(C)c1C)c(C)[n+]2[O-]
inactive: ACHN > 100 µM | CAKI-1 > 100 µM | COLO 205 > 100 µM | EKVX > 100 µM | K562 > 100 µM | NCI-H23 > 100 µM | NCI-H460 > 100 µM | OVCAR-3 > 100 µM | OVCAR-5 67.1 µM | OVCAR-8 > 100 µM | SF-268 > 100 µM | SN12C > 100 µM | SNB-75 > 100 µM | SW-620 > 100 µM | UACC-257 28.6 µM

C=CC[C@H]1C[C@@]2(C)OC[C@H](C(C)C)N2C1=O
inactive: ACHN > 100 µM | CAKI-1 > 100 µM | COLO 205 > 100 µM | EKVX > 100 µM | K562 > 100 µM | NCI-H23 > 100 µM | NCI-H460 > 100 µM | OVCAR-3 > 100 µM | OVCAR-5 > 100 µM | OVCAR-8 > 100 µM | SF-268 > 100 µM | SN12C > 100 µM | SNB-75 > 100 µM | SR > 100 µM | SW-620 > 100 µM | UACC-257 > 100 µM

C=C(C)CCOC(c1ccccc1)(c1ccccc1)c1ccccc1
inactive: ACHN 25.7 µM | CAKI-1 70.6 µM | COLO 205 55.1 µM | HL-60 31.5 µM | K562 > 100 µM | NCI-H23 27.8 µM | NCI-H460 29.1 µM | OVCAR-3 64.4 µM | OVCAR-5 > 100 µM | OVCAR-8 73.5 µM | SF-268 47 µM | SN12C 69 µM | SNB-75 68.7 µM | SW-620 82.4 µM | UACC-257 25.4 µM

Cc1nc2ccccc2c(=O)n1-c1ccccc1F
inactive: ACHN > 100 µM | CAKI-1 > 100 µM | COLO 205 > 100 µM | EKVX > 100 µM | HL-60 > 100 µM | K562 > 100 µM | NCI-H23 > 100 µM | NCI-H460 > 100 µM | OVCAR-3 > 100 µM | OVCAR-5 > 100 µM | OVCAR-8 > 100 µM | SF-268 > 100 µM | SN12C > 100 µM | SNB-75 30.2 µM | SW-620 > 100 µM | UACC-257 > 100 µM

O=C1CCC(=O)c2ccccc2N1
inactive: ACHN > 100 µM | CAKI-1 > 100 µM | COLO 205 > 100 µM | EKVX > 100 µM | HL-60 > 100 µM | K562 > 100 µM | NCI-H23 > 100 µM | NCI-H460 > 100 µM | OVCAR-3 > 100 µM | OVCAR-5 > 100 µM | OVCAR-8 > 100 µM | SF-268 > 100 µM | SN12C > 100 µM | SNB-75 > 100 µM | SW-620 > 100 µM | UACC-257 > 100 µM

CN(C)c1ccc(/C=C2\Cc3ccccc3C2=O)cc1Br
inactive: ACHN 45.8 µM | CAKI-1 64.1 µM | COLO 205 92.9 µM | EKVX 76.6 µM | K562 33 µM | NCI-H23 39.2 µM | NCI-H460 53.6 µM | OVCAR-3 > 100 µM | OVCAR-5 79.1 µM | OVCAR-8 63.5 µM | SF-268 32.7 µM | SN12C 51.5 µM | SNB-75 38.5 µM | SW-620 59.3 µM | UACC-257 44.8 µM

C=CC(=O)NCCSCCCOC1(C(=O)O)CC(O)C(NC(C)=O)C(C(O)C(O)CO)O1 (centres undefined)
inactive: ACHN > 100 µM | COLO 205 > 100 µM | HL-60 > 100 µM | K562 > 100 µM | NCI-H23 > 100 µM | NCI-H460 > 100 µM | OVCAR-3 > 100 µM | OVCAR-5 > 100 µM | OVCAR-8 > 100 µM | SN12C > 100 µM | SR > 100 µM | SW-620 > 100 µM | UACC-257 > 100 µM

CCc1ccccc1NC(=O)C(=O)C(C(=O)c1ccc(OC)cc1)c1ccc(OC)cc1 (centres undefined)
inactive: ACHN > 100 µM | CAKI-1 > 100 µM | COLO 205 > 100 µM | EKVX > 100 µM | HL-60 > 100 µM | K562 > 100 µM | NCI-H23 > 100 µM | NCI-H460 > 100 µM | OVCAR-3 > 100 µM | OVCAR-5 > 100 µM | OVCAR-8 > 100 µM | SF-268 > 100 µM | SN12C > 100 µM | SW-620 > 100 µM | UACC-257 > 100 µM

COC(=O)OCC1OC(N2C(=O)NC(=O)C(Br)C2N=[N+]=[N-])CC1OC(=O)OC (centres undefined)
inactive: ACHN > 100 µM | CAKI-1 > 100 µM | COLO 205 > 100 µM | NCI-H23 > 100 µM | NCI-H460 > 100 µM | OVCAR-3 > 100 µM | OVCAR-5 > 100 µM | OVCAR-8 > 100 µM | SF-268 > 100 µM | SN12C > 100 µM | SNB-75 > 100 µM | SW-620 > 100 µM | UACC-257 > 100 µM

CCCCCCCCCCCCCCCCCC[N+](C)(C)Cc1ccc(C[N+](C)(C)CCCCCCCCCCCCCCCCCC)cc1
inactive: ACHN 10.4 µM | CAKI-1 21.2 µM | COLO 205 34.8 µM | EKVX 18.9 µM | K562 45.1 µM | NCI-H23 4.09 µM | NCI-H460 17.6 µM | OVCAR-3 7.01 µM | OVCAR-5 32.9 µM | OVCAR-8 6.5 µM | SF-268 21.7 µM | SN12C 10.9 µM | SNB-75 3.15 µM | SR 2.39 µM | SW-620 18.2 µM | UACC-257 15.9 µM

CN(OC(=O)CC(=O)c1ccccc1)C(=O)Cc1ccccc1
inactive: ACHN > 100 µM | CAKI-1 > 100 µM | COLO 205 > 100 µM | EKVX > 100 µM | HL-60 > 100 µM | NCI-H23 > 100 µM | NCI-H460 > 100 µM | OVCAR-3 > 100 µM | OVCAR-5 > 100 µM | OVCAR-8 > 100 µM | SF-268 > 100 µM | SN12C > 100 µM | SR > 100 µM | SW-620 > 100 µM | UACC-257 > 100 µM

O=P(O)(OCC(O)O)OCC(O)O
inactive: ACHN > 100 µM | COLO 205 > 100 µM | EKVX > 100 µM | HL-60 > 100 µM | K562 > 100 µM | NCI-H23 > 100 µM | NCI-H460 > 100 µM | OVCAR-3 > 100 µM | OVCAR-5 > 100 µM | OVCAR-8 > 100 µM | SF-268 > 100 µM | SNB-75 > 100 µM | SW-620 > 100 µM | UACC-257 > 100 µM
